Reference: patent publication US20050239656A1, “Pyridine compounds or salts thereof and herbicides containing the same” (priority 2002, published 2005)

What was measured:
[1] = system: barnyardgrass; experiment: Test Example 1: foliage treatment, upland pot test; type: in vivo, Echinochloa crus-galli L.; details: active ingredient 500 g/ha, observed 18th to 23rd day, 0 = non-treated, 100 = complete kill
Method in brief: (§1)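 Foliage tx, upland soil pots; stages: wheat 1.3-2.4 L, rice 1.2-2.6 L, soybean 0.1-0.4 L, barnyardgrass 1.3-2.8 L. WP/EC diluted, 500 L/ha water + 0.1% (v/v) agricultural spreader, small sprayer. Visual rating d18–23, 0–100% control.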

[2] = system: crabgrass; experiment: Test Example 1: foliage treatment, upland pot test; type: in vivo, Digitaria sanguinalis L.; details: active ingredient 500 g/ha, observed 18th to 23rd day, 0 = non-treated, 100 = complete kill
[3] = system: green foxtail; experiment: Test Example 1: foliage treatment, upland pot test; type: in vivo, Setaria viridis L.; details: active ingredient 500 g/ha, observed 18th to 23rd day, 0 = non-treated, 100 = complete kill
[4] = system: redroot pigweed; experiment: Test Example 1: foliage treatment, upland pot test; type: in vivo, Amaranthus retroflexus L.; details: active ingredient 500 g/ha, observed 18th to 23rd day, 0 = non-treated, 100 = complete kill
[5] = system: prickly sida; experiment: Test Example 1: foliage treatment, upland pot test; type: in vivo, Sida spinosa L.; details: active ingredient 500 g/ha, observed 18th to 23rd day, 0 = non-treated, 100 = complete kill
[6] = system: velvetleaf; experiment: Test Example 1: foliage treatment, upland pot test; type: in vivo, Abutilon theophrasti MEDIC.; details: active ingredient 500 g/ha, observed 18th to 23rd day, 0 = non-treated, 100 = complete kill
[7] = system: rice; experiment: Test Example 1: foliage treatment, upland pot test; type: in vivo, Oryza sativa L.; details: crop, active ingredient 500 g/ha, observed 18th to 23rd day, 0 = non-treated, 100 = complete kill
Method in brief: as §1

[8] = system: wheat; experiment: Test Example 1: foliage treatment, upland pot test; type: in vivo, Triticum spp.; details: crop, active ingredient 500 g/ha, observed 18th to 23rd day, 0 = non-treated, 100 = complete kill
Method in brief: as §1

[9] = system: corn; experiment: Test Example 1: foliage treatment, upland pot test; type: in vivo, Zea mays L.; details: crop, active ingredient 500 g/ha, observed 18th to 23rd day, 0 = non-treated, 100 = complete kill
Method in brief: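 In this upland pot foliage test, corn plants at 2.1 to 3.2 leaf stages were sprayed by a small size sprayer. The spray was a conventionally formulated wettable powder or emulsifiable concentrate weighed to a set active ingredient amount, diluted in water at 500 L/ha, plus 0.1% (v/v) agricultural spreader. Visual assessment on days 18 to 23 gave growth controlling degree (%), where 0 equals untreated and 100 means complete kill.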

[10] = system: soybean; experiment: Test Example 1: foliage treatment, upland pot test; type: in vivo, Glycine max Merr.; details: crop, active ingredient 500 g/ha, observed 18th to 23rd day, 0 = non-treated, 100 = complete kill
Method in brief: as §1

[11] = system: barnyardgrass; experiment: Test Example 2: soil surface treatment, upland pot test; type: in vivo, Echinochloa crus-galli L.; details: observed 20th to 28th day
Method in brief: (§2)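 Pots (1/170,000 ha) filled with upland field soil were seeded, then treated on the following day by spraying the soil surface with diluted formulation (1,500 L/ha) at a fixed a.i. dose. Control was rated visually on a 0–100% scale at 20–28 days.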

[12] = system: crabgrass; experiment: as above; type: in vivo, Digitaria sanguinalis L.; details: observed 20th to 28th day
Method in brief: as §2

[13] = system: green foxtail; experiment: as above; type: in vivo, Setaria viridis L.; details: observed 20th to 28th day
Method in brief: as §2

[14] = system: redroot pigweed; experiment: as above; type: in vivo, Amaranthus retroflexus L.; details: observed 20th to 28th day
Method in brief: as §2

[15] = system: prickly sida; experiment: as above; type: in vivo, Sida spinosa L.; details: observed 20th to 28th day
Method in brief: as §2

[16] = system: velvetleaf; experiment: as above; type: in vivo, Abutilon theophrasti MEDIC.; details: observed 20th to 28th day
Method in brief: as §2

[17] = system: rice; experiment: as above; type: in vivo, Oryza sativa L.; details: observed 20th to 28th day
Method in brief: as §2

[18] = system: wheat; experiment: as above; type: in vivo, Triticum spp.; details: observed 20th to 28th day
Method in brief: as §2

[19] = system: corn; experiment: as above; type: in vivo, Zea mays L.; details: observed 20th to 28th day
Method in brief: as §2

[20] = system: soybean; experiment: as above; type: in vivo, Glycine max Merr.; details: observed 20th to 28th day
Method in brief: as §2

[21] = system: barnyardgrass; experiment: Test Example 3: paddy pot test, application under submerged conditions; type: in vivo, Echinochloa crus-galli L.; details: submerged application at 0.5 leaf stage, visually observed 14 days after application, 0 = non-treated, 100 = complete kill
Method in brief: (§3)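 Visual rating of growth control (0% equals untreated, 100% complete kill) made 14 days after treatment. Compound, formulated as wettable powder or emulsifiable concentrate and diluted in water, was pipetted under submerged conditions at predetermined active-ingredient doses once weeds reached 0.5-leaf (barnyardgrass, bulrush) or primary-leaf (wapato, from tubers) stage. Pots of greenhouse paddy soil held 3–4 cm flooding.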

[22] = system: japanese bulrush; experiment: as above; type: in vivo, Scirpus juncoides; details: submerged application at 0.5 leaf stage, visually observed 14 days after application, 0 = non-treated, 100 = complete kill
Method in brief: as §3

[23] = system: rice (var. Nihonbare); experiment: Test Example 3: paddy pot test, transplanted rice; type: in vivo, Oryza sativa L.; details: applied 4th day after transplantation, visually observed 21st day after application, 0 = non-treated, 100 = complete kill
Method in brief: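 Visual crop-injury rating (0 = as untreated, 100 = complete kill, %) taken 21 days post-application. Treatment: formulated compound, water-diluted, pipetted into 3–4 cm flood water at a preset active-ingredient dose, 4 days after transplanting 2-leaf Nihonbare rice 3 cm deep in puddled paddy soil.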

Compound | Growth controlling degree (%) Barnyardgrass [1] [%] | Growth controlling degree (%) Crabgrass [2] [%] | Growth controlling degree (%) Green foxtail [3] [%] | Growth controlling degree (%) Redroot pigweed [4] [%] | Growth controlling degree (%) Prickly sida [5] [%] | Growth controlling degree (%) Velvetleaf [6] [%] | Growth controlling degree (%) Rice [7] [%] | Growth controlling degree (%) wheat [8] [%] | Growth controlling degree (%) Corn [9] [%] | Growth controlling degree (%) Soybean [10] [%] | Growth controlling degree (%) Barnyardgrass ([11]; active ingredient 500 g/ha) [%] | Growth controlling degree (%) Crabgrass ([12]; active ingredient 500 g/ha) [%] | Growth controlling degree (%) Green foxtail ([13]; active ingredient 500 g/ha) [%] | Growth controlling degree (%) Redroot pigweed ([14]; active ingredient 500 g/ha) [%] | Growth controlling degree (%) Prickly sida ([15]; active ingredient 500 g/ha) [%] | Growth controlling degree (%) Velvetleaf ([16]; active ingredient 500 g/ha) [%] | Growth controlling degree (%) Rice ([17]; active ingredient 500 g/ha) [%] | Growth controlling degree (%) wheat ([18]; active ingredient 500 g/ha) [%] | Growth controlling degree (%) Corn ([19]; active ingredient 500 g/ha) [%] | Growth controlling degree (%) Soyabean ([20]; active ingredient 500 g/ha) [%] | further results
CC(C)C(c1cnccc1C(F)(F)F)N(C)C(=O)Cc1ccc(OC(F)F)cc1 (racemic) [I-128] | 70 | 95 | 50 | 60 | 80 | 80 | 50 | 30 | 70 | 80 | 100 | 100 | 100 | 30 | 80 | 60 | 40 | 30 | 50 | 20 | Growth controlling degree (%) Barnyardgrass ([21]; active ingredient 250 g/ha): 100%; Growth controlling degree (%) Japanese bulrush ([22]; active ingredient 250 g/ha): 90%; Growth controlling degree (%) Rice ([23]; active ingredient 250 g/ha): 0%
Cc1ccc(S(=O)(=O)N(C)C(c2cnccc2C(F)(F)F)C(C)C)cc1 (racemic) [I-130] | 70 | 80 | 60 | 70 | 80 | 70 | 40 | 10 | 70 | 40 | – | – | – | – | – | – | – | – | – | – | Growth controlling degree (%) Barnyardgrass ([11]; active ingredient 250 g/ha): 100%; Growth controlling degree (%) Crabgrass ([12]; active ingredient 250 g/ha): 98%; Growth controlling degree (%) Green foxtail ([13]; active ingredient 250 g/ha): 95%; Growth controlling degree (%) Redroot pigweed ([14]; active ingredient 250 g/ha): 10%; Growth controlling degree (%) Prickly sida ([15]; active ingredient 250 g/ha): 50%; Growth controlling degree (%) Velvetleaf ([16]; active ingredient 250 g/ha): 10%; Growth controlling degree (%) Rice ([17]; active ingredient 250 g/ha): 40%; Growth controlling degree (%) wheat ([18]; active ingredient 250 g/ha): 20%; Growth controlling degree (%) Corn ([19]; active ingredient 250 g/ha): 20%; Growth controlling degree (%) Soyabean ([20]; active ingredient 250 g/ha): 10%; Growth controlling degree (%) Barnyardgrass ([21]; active ingredient 125 g/ha): 100%; Growth controlling degree (%) Japanese bulrush ([22]; active ingredient 125 g/ha): 70%; Growth controlling degree (%) Rice ([23]; active ingredient 125 g/ha): 10%
CC(C)C(c1cnccc1C(F)(F)F)N(C)C(=O)CC1Cc2ccccc2C1 (centres unmarked) [I-191] | 70 | 70 | 80 | 70 | 80 | 80 | 20 | 10 | 60 | 50 | 100 | 98 | 100 | 50 | 10 | 10 | 20 | 20 | 40 | 30 | Growth controlling degree (%) Barnyardgrass ([21]; active ingredient 500 g/ha): 100%; Growth controlling degree (%) Japanese bulrush ([22]; active ingredient 500 g/ha): 90%; Growth controlling degree (%) Rice ([23]; active ingredient 500 g/ha): 20%
CC(C)CC(=O)N(C)C(c1cnccc1C(F)(F)F)C(C)C (centres unmarked) [I-193] | 95 | 90 | 80 | 80 | 90 | 60 | 80 | 80 | 80 | 80 | – | – | – | – | – | – | – | – | – | – | Growth controlling degree (%) Barnyardgrass ([11]; active ingredient 250 g/ha): 100%; Growth controlling degree (%) Crabgrass ([12]; active ingredient 250 g/ha): 100%; Growth controlling degree (%) Green foxtail ([13]; active ingredient 250 g/ha): 100%; Growth controlling degree (%) Redroot pigweed ([14]; active ingredient 250 g/ha): 10%; Growth controlling degree (%) Prickly sida ([15]; active ingredient 250 g/ha): 80%; Growth controlling degree (%) Velvetleaf ([16]; active ingredient 250 g/ha): 10%; Growth controlling degree (%) Rice ([17]; active ingredient 250 g/ha): 80%; Growth controlling degree (%) wheat ([18]; active ingredient 250 g/ha): 60%; Growth controlling degree (%) Corn ([19]; active ingredient 250 g/ha): 70%; Growth controlling degree (%) Soyabean ([20]; active ingredient 250 g/ha): 10%; Growth controlling degree (%) Barnyardgrass ([21]; active ingredient 250 g/ha): 100%; Growth controlling degree (%) Japanese bulrush ([22]; active ingredient 250 g/ha): 95%; Growth controlling degree (%) Rice ([23]; active ingredient 250 g/ha): 30%
